Measurements taken from the supplement of paper PMC10307832.

Legend:
Assay in all cases: relative viability (nuclei count vs DMSO), 5 days (fraction); higher = more cells survive
A-427 = test system: A-427
Method in brief: (§1)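 Nuclei were stained with Hoechst during a one-step fixation (final 0.05% Triton X-100, 1% formaldehyde, 1 ug/ml Hoechst) carried out 5 days after dosing, then counted on 4× images. The cells, lung cancer lines in 1536-well plates, had been dosed by pin tool the day after seeding with one drug alone or a fixed anchor-drug dose plus five library-drug doses (not always all listed) in √10 steps. Relative viability is the nuclei count in treated wells divided by that in vehicle wells, and each value is the median of duplicate plates.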

CAL-12T = test system: CAL-12T
Method in brief: as §1

COR-L 105 = test system: COR-L 105
Method in brief: as §1

EMC-BAC-2 = test system: EMC-BAC-2
Method in brief: as §1

HARA = test system: HARA
Method in brief: as §1

HCC-366 = test system: HCC-366
Method in brief: as §1

HCC-827 = test system: HCC-827
Method in brief: as §1

HOP-62 = test system: HOP-62
Method in brief: as §1

LCLC-103H = test system: LCLC-103H
Method in brief: as §1

NCI-H1355 = test system: NCI-H1355
Method in brief: as §1

NCI-H1395 = test system: NCI-H1395
Method in brief: as §1

NCI-H1437 = test system: NCI-H1437
Method in brief: as §1

NCI-H1755 = test system: NCI-H1755
Method in brief: as §1

NCI-H1792 = test system: NCI-H1792
Method in brief: as §1

NCI-H1915 = test system: NCI-H1915
Method in brief: as §1

NCI-H1975 = test system: NCI-H1975
Method in brief: as §1

NCI-H2009 = test system: NCI-H2009
Method in brief: as §1

NCI-H2228 = test system: NCI-H2228
Method in brief: as §1

NCI-H23 = test system: NCI-H23
Method in brief: as §1

NCI-H460 = test system: NCI-H460
Method in brief: as §1

NCI-H522 = test system: NCI-H522
Method in brief: as §1

NCI-H727 = test system: NCI-H727
Method in brief: as §1

SK-LU-1 = test system: SK-LU-1
Method in brief: as §1

SW 1573 = test system: SW 1573
Method in brief: as §1

Clc1ccc(Nc2nnc(Cc3ccncc3)c3ccccc23)cc1 [Vatalanib] + O=C(c1cc(Cc2n[nH]c(=O)c3ccccc23)ccc1F)N1CCN(C(=O)C2CC2)CC1 [Olaparib] (partner 8 µM)
relative viability (A-427; first compound 0.04 µM): 0.664
relative viability (A-427; first compound 0.1265 µM): 0.729
relative viability (A-427; first compound 0.4 µM): 0.768
relative viability (A-427; first compound 4 µM): 0.666
relative viability (CAL-12T; first compound 0.04 µM): 0.692
relative viability (CAL-12T; first compound 0.1265 µM): 0.645
relative viability (CAL-12T; first compound 0.4 µM): 0.773
relative viability (CAL-12T; first compound 1.265 µM): 0.697
relative viability (CAL-12T; first compound 4 µM): 0.672
relative viability (COR-L 105; first compound 0.04 µM): 0.719
relative viability (COR-L 105; first compound 0.1265 µM): 0.762
relative viability (COR-L 105; first compound 0.4 µM): 0.738
relative viability (COR-L 105; first compound 1.265 µM): 0.645
relative viability (COR-L 105; first compound 4 µM): 0.703
relative viability (EMC-BAC-2; first compound 0.04 µM): 0.476
relative viability (EMC-BAC-2; first compound 0.1265 µM): 0.476
relative viability (EMC-BAC-2; first compound 0.4 µM): 0.497
relative viability (EMC-BAC-2; first compound 4 µM): 0.492
relative viability (HARA; first compound 0.04 µM): 0.713
relative viability (HARA; first compound 0.1265 µM): 0.725
relative viability (HARA; first compound 0.4 µM): 0.875
relative viability (HARA; first compound 1.265 µM): 0.97
relative viability (HARA; first compound 4 µM): 0.823
relative viability (HCC-366; first compound 0.04 µM): 0.337
relative viability (HCC-366; first compound 0.1265 µM): 0.34
relative viability (HCC-366; first compound 0.4 µM): 0.416
relative viability (HCC-366; first compound 1.265 µM): 0.334
relative viability (HCC-366; first compound 4 µM): 0.303
relative viability (HCC-827; first compound 0.04 µM): 0.56
relative viability (HCC-827; first compound 0.1265 µM): 0.655
relative viability (HCC-827; first compound 1.265 µM): 0.534
relative viability (HCC-827; first compound 4 µM): 0.638
relative viability (HOP-62; first compound 0.04 µM): 0.385
relative viability (HOP-62; first compound 0.1265 µM): 0.389
relative viability (HOP-62; first compound 0.4 µM): 0.523
relative viability (HOP-62; first compound 1.265 µM): 0.41
relative viability (HOP-62; first compound 4 µM): 0.419
relative viability (LCLC-103H; first compound 0.04 µM): 0.746
relative viability (LCLC-103H; first compound 0.1265 µM): 0.706
relative viability (LCLC-103H; first compound 0.4 µM): 0.749
relative viability (LCLC-103H; first compound 1.265 µM): 0.746
relative viability (LCLC-103H; first compound 4 µM): 0.764
relative viability (NCI-H1355; first compound 0.04 µM): 0.732
relative viability (NCI-H1355; first compound 0.1265 µM): 0.79
relative viability (NCI-H1355; first compound 0.4 µM): 0.809
relative viability (NCI-H1355; first compound 1.265 µM): 0.699
relative viability (NCI-H1355; first compound 4 µM): 0.706
relative viability (NCI-H1395; first compound 0.04 µM): 0.448
relative viability (NCI-H1395; first compound 0.1265 µM): 0.456
relative viability (NCI-H1395; first compound 0.4 µM): 0.489
relative viability (NCI-H1395; first compound 4 µM): 0.437
relative viability (NCI-H1437; first compound 0.04 µM): 0.67
relative viability (NCI-H1437; first compound 0.1265 µM): 0.625
relative viability (NCI-H1437; first compound 0.4 µM): 0.679
relative viability (NCI-H1437; first compound 1.265 µM): 0.625
relative viability (NCI-H1437; first compound 4 µM): 0.606
relative viability (NCI-H1755; first compound 0.04 µM): 0.773
relative viability (NCI-H1755; first compound 0.1265 µM): 0.847
relative viability (NCI-H1755; first compound 0.4 µM): 0.878
relative viability (NCI-H1755; first compound 1.265 µM): 0.901
relative viability (NCI-H1755; first compound 4 µM): 0.838
relative viability (NCI-H1792; first compound 0.04 µM): 0.52
relative viability (NCI-H1792; first compound 0.1265 µM): 0.384
relative viability (NCI-H1792; first compound 0.4 µM): 0.399
relative viability (NCI-H1792; first compound 1.265 µM): 0.344
relative viability (NCI-H1792; first compound 4 µM): 0.413
relative viability (NCI-H1915; first compound 0.04 µM): 0.258
relative viability (NCI-H1915; first compound 0.1265 µM): 0.265
relative viability (NCI-H1915; first compound 0.4 µM): 0.275
relative viability (NCI-H1915; first compound 1.265 µM): 0.233
relative viability (NCI-H1915; first compound 4 µM): 0.253
relative viability (NCI-H1975; first compound 0.04 µM): 0.84
relative viability (NCI-H1975; first compound 0.1265 µM): 0.727
relative viability (NCI-H1975; first compound 0.4 µM): 0.729
relative viability (NCI-H1975; first compound 1.265 µM): 0.709
relative viability (NCI-H1975; first compound 4 µM): 0.695
relative viability (NCI-H2009; first compound 0.04 µM): 0.703
relative viability (NCI-H2009; first compound 0.1265 µM): 0.623
relative viability (NCI-H2009; first compound 0.4 µM): 0.675
relative viability (NCI-H2009; first compound 1.265 µM): 0.672
relative viability (NCI-H2009; first compound 4 µM): 0.594
relative viability (NCI-H2228; first compound 0.04 µM): 0.648
relative viability (NCI-H2228; first compound 0.1265 µM): 0.772
relative viability (NCI-H2228; first compound 0.4 µM): 0.816
relative viability (NCI-H2228; first compound 1.265 µM): 0.654
relative viability (NCI-H2228; first compound 4 µM): 0.598
relative viability (NCI-H23; first compound 0.04 µM): 0.306
relative viability (NCI-H23; first compound 0.1265 µM): 0.161
relative viability (NCI-H23; first compound 0.4 µM): 0.326
relative viability (NCI-H23; first compound 1.265 µM): 0.305
relative viability (NCI-H23; first compound 4 µM): 0.28
relative viability (NCI-H460; first compound 0.04 µM): 0.4
relative viability (NCI-H460; first compound 0.1265 µM): 0.44
relative viability (NCI-H460; first compound 1.265 µM): 0.494
relative viability (NCI-H460; first compound 4 µM): 0.377
relative viability (NCI-H522; first compound 0.04 µM): 0.756
relative viability (NCI-H522; first compound 0.1265 µM): 0.705
relative viability (NCI-H522; first compound 0.4 µM): 0.746
relative viability (NCI-H522; first compound 1.265 µM): 0.565
relative viability (NCI-H522; first compound 4 µM): 0.774
relative viability (NCI-H727; first compound 0.1265 µM): 0.772
relative viability (NCI-H727; first compound 0.4 µM): 0.761
relative viability (NCI-H727; first compound 1.265 µM): 0.818
relative viability (NCI-H727; first compound 4 µM): 0.758
relative viability (SK-LU-1; first compound 0.04 µM): 0.438
relative viability (SK-LU-1; first compound 0.1265 µM): 0.449
relative viability (SK-LU-1; first compound 0.4 µM): 0.52
relative viability (SK-LU-1; first compound 1.265 µM): 0.467
relative viability (SK-LU-1; first compound 4 µM): 0.365
relative viability (SW 1573; first compound 0.04 µM): 0.466
relative viability (SW 1573; first compound 0.1265 µM): 0.521
relative viability (SW 1573; first compound 0.4 µM): 0.506
relative viability (SW 1573; first compound 1.265 µM): 0.55
relative viability (SW 1573; first compound 4 µM): 0.355
